Tests used:
Format in all cases: physicochemical
[1] = Miscibility test with common oilfield solvents (Tables 3-5); design: key: S = separate; M = miscible; conditions: 50/50 volume per volume; for Solubility in Crude oil: shaken about a minute, let stand about 5 mins
Experimental: For each test solvent, it is blended with a common solvent at 50/50 volume per volume ratio. It is shaken vigorously for about a minute and let stand for about 5 mins. A complete miscibility is recorded if there is no formation of layers. Formation of turbid mixture or multiple layers is recorded as immiscible or separate.

[2] = Wettability of EGMBE compared with alternative solvents/blends
[3] = Miscibility of alkyldimethylamides as stated in the text
[4] = Blends miscible in water and in mud solvents (Table 6); conditions: 50/50 wt, room temperature
Experimental: Miscibility Test: Referring generally to Tables 4-6, the test solvent or solvent blend for EGMBE-replacement is mixed with common solvents used in oilfield industries to determine miscibility. […] It is shaken vigorously for about a minute and let stand for about 5 mins. A complete miscibility is recorded if there is no formation of layers. Formation of turbid mixture or multiple layers is recorded as immiscible or separate.

[5] = Surface tension by the ring method (Du Nouy method); conditions: undiluted solvent, about 50 milliliters sample
Experimental: Surface Tension: Referring generally to Table 2, interfacial tension is measured for each test solvent or solvent blend for EGMBE-replacement. No further dilution is performed on the solvent prior to measurement. Interfacial tension was measured using about 50 milliliters sample by the ring method (Du Nouy method).

SMILES | Solubility in Alpha Olefin C1618 [1] | Solubility in Brines (Forties FW) [1] | Solubility in D-Limonene [1] | Solubility in Dodecane (to mimic Kerosen) [1] | Solubility in Exxsol D100 [1] | Solubility in Solvesso 150 ND [1] | Solubility in Water [1] | Solubility in isoparrafin [1] | Solubility in isopropanol [1] | Solubility in toluene [1] | Solubility in xylene [1] | Solubility in Crude oil [1] | wettability, Mean (°) [2] | ST (surface tension) [5] | other results
O [Water] |  |  |  |  |  |  |  |  |  |  |  |  | 109.2 ° |  | 
CCCCCCCC(=O)N(C)C [N,N-dimethyloctanamide] |  |  |  |  |  |  |  |  |  |  |  |  |  |  | miscibility [3]: 0.43%
CCCCOCCO [EGMBE, ethyleneglycolmonobutyl ether] |  |  |  |  |  |  |  |  |  |  |  |  | 45.0 ° | 26.3757 mN/m | Miscibility in Alpha Olefin C1618 [4]: miscible; Miscibility in D-Limonene [4]: miscible; Miscibility in Exxsol D100 [4]: miscible; Miscibility in Isopar L [4]: miscible; Miscibility in Water [4]: miscible; Miscibility in xylene [4]: miscible
CCCCOCCOCCO [Butyl Carbitol, diethylene glycol butyl ether] |  |  |  |  |  |  |  |  |  |  |  |  | 50.8 ° |  | 

Continued, in another order:

Solubility in Alpha Olefin C1618 [1] | Solubility in Brines (Forties FW) [1] | Solubility in D-Limonene [1] | Solubility in Dodecane (to mimic Kerosen) [1] | Solubility in Exxsol D100 [1] | Solubility in Solvesso 150 ND [1] | Solubility in Water [1] | Solubility in isoparrafin [1] | Solubility in isopropanol [1] | Solubility in toluene [1] | Solubility in xylene [1] | Solubility in Crude oil [1] | wettability, Mean (°) [2] | ST (surface tension) [5] | SMILES | other results
M | M | M | M | M | M | M | M | M | M | M | M |  |  | CC(C)O [IPA, isopropyl alcohol] | 
M | S | M | M | M | M | S | M | M | M | M | M | 29.8 ° |  | CCCCOCC(C)O (stereo not shown) [Dowanol, propylene glycol n-butyl ether] | 
S | M | M | S | S | M | M | S | M | M | M | S | 48.9 ° | 33.871 mN/m | COC(=O)C(C)CCC(=O)N(C)C (stereo not shown) [Polarclean] | 
S | M | M | S | S | M | M | S | M | M | M | S | 50.5 ° | 31.9988 mN/m | CC1(C)OCC(CO)O1 (stereo not shown) [Augeo SL 191] | 

Reference: patent US10633579B2, “Use of environmentally friendly solvents to replace glycol-based solvents” (RHODIA OPERATIONS, priority 2011, dated 2020)
